Where two headings read alike, the source gives them in different places.
What was measured:
[1] = system: MDA 468; assay: MTT assay, 3 day exposure, MDA 468; format: cell-based; settings: Homo sapiens, MDA 468 (breast), read-out: GI50 values in cell lines, MDA 468
Experimental: (§1) A range of compounds were evaluated in MTT assays following 3 day exposure against a panel of two human breast cancer cell lines MCF-7 (ER+) and MDA 468 (ER−), and two colon cancer cell lines KM12 and HCC 2998. In general the breast cell lines were more sensitive to the agents and the MDA 468 line the most sensitive of the four (Table 2). The benchmark active compound was 5-fluoro-2-(3,4-dimethoxyphenyl)benzothiazole (1) with GI50 values<0.1 nM against the two breast cell lines. […] The most interesting series of compounds were those combining a 5-fluoro group with two oxygenated substituents in the 3′,4′-positions where minor, seemingly conservative, structural changes were associated with a dramatic variations in activity (when compared to 1). […] In summary, this in vitro screen led to the identification of the fluorinated 2-(3,4-dimethoxyphenyl)benzothiazole structure as a novel antitumor pharmacophore with the 5-fluoro analogue (1) astride a pinnacle of activity.
(§2) The assays/methods used to generate the results referred to herein are well known to those skilled in the art and therefore it has not been necessary to describe them in detail.

[2] = system: MCF-7; assay: MTT assay, 3 day exposure, MCF-7; format: cell-based; settings: Homo sapiens, read-out: GI50 values in cell lines, MCF-7
Experimental: as §1, §2

[3] = system: KM 12; assay: MTT assay, 3 day exposure, KM12; format: cell-based, human; settings: KM 12 (colon), read-out: GI50 values in cell lines, KM 12
Experimental: as §1, §2

[4] = system: HCC 2998; assay: MTT assay, 3 day exposure, HCC 2998; format: cell-based; settings: Homo sapiens, read-out: GI50 values in cell lines, HCC 2998
Experimental: as §1, §2

[5] = system: MCF-7, MDA 468, KM12 and HCC 2998; assay: MTT assay, panel of four cell lines, results in words; format: cell-based, human; settings: compared to compound 1
Experimental: as §1

[6] = 72 h, MTT, 3 day exposure, triplicate
[7] = MCF7, 72 h, MCF-7 (breast), MTT, 3 day exposure, triplicate
[8] = Homo sapiens, KM12, 72 h, MTT, 3 day exposure, triplicate
[9] = HCC 2998, 72 h, HCC 2998 (colon), MTT, 3 day exposure, triplicate
[10] = MCF7, MCF-7 (breast), value in nM

SMILES | melting point [°C] | GI50 [2, 7] [nM] | GI50 [4, 9] [nM] | GI50 [2, 10] [nM] | GI50 ([4]; HCC 2998, HCC 2998 (colon), value in nM) [nM] | GI50 [1, 6] [nM] | GI50 [3, 8] [nM] | growth inhibitory potency in words [5] | GI50 ([1]; value in nM) [nM] | GI50 ([3]; value in nM) [nM]
Oc1ccc(-c2nc3cc(F)ccc3s2)cc1O [Compound 9, 5-Fluoro-2-(3,4-dihydroxyphenyl)benzothiazole] | 197 |  |  |  |  |  |  | dyschemotherapeutic effect |  | 
COc1cc(-c2nc3cc(F)ccc3s2)cc(OC)c1OC [Compound 43, 5-Fluoro-2-(3,4,5-trimethoxyphenyl)benzothiazole] | 120 to 122 | 1.9 | 21100 |  |  | 2.1 | 13000 | retained nanomolar inhibitory potency against the MCF-7 cell and MDA 468 cell lines |  | 
COc1ccc(-c2nc3cc(F)ccc3s2)c(OC)c1OC [Compound 50, 2-(2,3,4-Trimethoxyphenyl)-5-fluorobenzothiazole] | 109 to 110 |  |  | 157 | 203 |  |  |  | 336 | 2905.3
COCOc1ccc(-c2nc3cc(F)ccc3s2)cc1OC [Compound 44, 5-Fluoro-2-(3-methoxy-4-methoxymethyloxyphenyl)benzothiazole] | 101 to 102 | 65 | 53500 |  |  | 48 | 19200 | dyschemotherapeutic effect |  | 
COc1ccc(-c2nc3cc(F)ccc3s2)cc1C [Compound 22, 5-Fluoro-2-(4-methoxy-3-methylphenyl)benzothiazole] | 120 | 48 | 540 |  |  | 58 | 18600 |  |  | 
COc1ccc(-c2nc3cc(Cl)ccc3s2)cc1OC [Compound 23, 5-Chloro-2-(3,4-dimethoxyphenyl)benzothiazole] | 154 to 155 | 27900 | 4880 |  |  | 1000 | 12400 | essentially abolished inhibitory potency |  | 
COc1cc(-c2nc3cc(F)ccc3s2)ccc1OC(=O)N1CCOCC1 [Compound 20, 5-Fluoro-2-[4-(morpholin-4-ylcarbonyloxy)-3-methoxyphenyl]benzothiazole] | 126 |  |  |  |  |  |  |  |  | 
COc1ccc(-c2nc3cc(F)ccc3s2)cc1OC(C)=O [Compound 11, 2-(3-Acetoxy-4-methoxyphenyl)-5-fluorobenzothiazole] | 190 |  |  |  |  |  |  |  |  | 
COc1cc(-c2nc3cc(F)ccc3s2)ccc1OC(=O)c1cccc([N+](=O)[O-])c1 [Compound 21, 5-Fluoro-2-[4-(3-nitrobenzoyloxy)-3-methoxyphenyl]benzothiazole] | 190 |  |  |  |  |  |  |  |  | 
COc1cc(OC)cc(-c2nc3cc(F)ccc3s2)c1 [Compound 42, 5-Fluoro-2-(3,5-dimethoxyphenyl)benzothiazole] | 115 | 1230 | 5210 |  |  | 310 | 7550 | only low micromolar inhibitory potency |  | 
COc1ccc(-c2nc3cc(F)ccc3s2)cc1Br [Compound 27, 2-(3-Bromo-4-methoxyphenyl)-5-fluorobenzothiazole] | 173 to 175 | 850 | 3450 |  |  | 420 | 6700 |  |  | 
COc1ccc(-c2nc3cc(F)ccc3s2)cc1OC(=O)c1ccccc1Br [Compound 16, 2-[3-(2-Bromobenzoyloxy)-4-methoxyphenyl]-5-fluorobenzothiazole] | 220 to 223 |  |  |  |  |  |  |  |  | 
COc1ccc(-c2nc3cc(F)ccc3s2)cc1OC(=O)c1ccccc1 [Compound 14, 2-(3-Benzoyloxy-4-methoxyphenyl)-5-fluorobenzothiazole] | 160 |  |  |  |  |  |  |  |  | 
CCOc1ccc(-c2nc3cc(F)ccc3s2)cc1OCC [Compound 46, 2-(3,4-Diethoxyphenyl)-5-fluorobenzothiazole] | 109 to 113 | 0.7 |  | 0.7 |  | 55 | 38500 | dyschemotherapeutic effect |  | 
COc1ccc(-c2sc3ccc(F)cc3[n+]2[O-])cc1OC [Compound 53, 2-(3,4-Dimethoxyphenyl)-5-fluorobenzothiazole N-oxide] | 201.4 | 920 | 40300 |  |  | 760 | > 100000 |  |  | 
COc1ccc(-c2nc3cc(F)ccc3s2)cc1O [Compound 5, 5-Fluoro-2-(3-hydroxy-4-methoxyphenyl)benzothiazole] | 169 to 172 | 500 | 7600 |  |  | 50 | 18400 | dyschemotherapeutic effect |  | 
COc1ccc(-c2nc3cc(F)ccc3s2)cc1I [Compound 28, 5-Fluoro-2-(3-iodo-4-methoxyphenyl)benzothiazole] | 167 | 820 | 940 |  |  | 360 | 6900 |  |  | 
CCOc1cc(-c2nc3cc(F)ccc3s2)ccc1OC [Compound 45, 2-(3-Ethoxy-4-methoxyphenyl)-5-fluorobenzothiazole] | 136 to 139 | 80 | 3320 |  |  | 92 | 5420 | dyschemotherapeutic effect |  | 
COc1ccc(-c2nc3cc(F)ccc3s2)cc1OC(=O)c1ccccc1Cl [Compound 15, 2-[3-(2-Chlorobenzoyloxy)-4-methoxyphenyl]-5-fluorobenzothiazole] | 190 |  |  |  |  |  |  |  |  | 
COc1ccc(-c2nc3cc(F)ccc3s2)cc1Cl [Compound 26, 5-fluoro 2-(3-Chloro-4-methoxyphenyl)benzothiazole] |  | 760 | 2500 |  |  | 480 | 7050 |  |  | 

More lines, main results first:

melting point [°C] | GI50 [2, 7] [nM] | GI50 [4, 9] [nM] | GI50 [2, 10] [nM] | GI50 ([4]; HCC 2998, HCC 2998 (colon), value in nM) [nM] | SMILES | GI50 [1, 6] [nM] | GI50 [3, 8] [nM] | growth inhibitory potency in words [5] | GI50 ([1]; value in nM) [nM] | GI50 ([3]; value in nM) [nM]
123 to 124 | 490 | 12400 |  |  | COc1ccc(-c2nc3cc(F)ccc3s2)cc1 [Compound 29, 5-Fluoro-2-(4-methoxyphenyl)benzothiazole] | 330 | 24600 |  |  | 
212 |  |  |  |  | COc1ccc(-c2nc3cc(F)ccc3s2)cc1OC(=O)c1cccc([N+](=O)[O-])c1 [Compound 17, 5-Fluoro-2-[3-(3-nitrobenzoyloxy)-4-methoxyphenyl]benzothiazole] |  |  |  |  | 
125 |  |  |  |  | CCCC(=O)Oc1cc(-c2nc3cc(F)ccc3s2)ccc1OC [Compound 47, 2-(3-Butyroyloxy-4-methoxyphenyl)-5-fluorobenzothiazole] |  |  |  |  | 
170 |  | 7530 | 0.085 |  | COc1ccc(-c2nc3cc(F)ccc3s2)cc1OC(=O)N1CCOCC1 [Compound 19, 5-Fluoro-2-[3-(morpholin-4-ylcarbonyloxy)-4-methoxyphenyl]benzothiazole] |  | 7140 |  | 0.64 | 
161 to 164 | 20700 | 22300 |  |  | Fc1ccc2sc(-c3ccc4c(c3)OCO4)nc2c1 [Compound 7, 5-Fluoro-2-(3,4-methylenedioxyphenyl)benzothiazole] | 570 | 25100 | dyschemotherapeutic effect |  | 
157 to 158 | 13600 | 20000 |  |  | COc1ccc(-c2nc3cc(Br)ccc3s2)cc1OC [Compound 24, 5-Bromo-2-(3,4-dimethoxyphenyl)benzothiazole] | 770 | 65200 | essentially abolished inhibitory potency |  | 
198 |  |  |  |  | COc1ccc(-c2nc3cc(F)ccc3s2)cc1OC(=O)c1ccc([N+](=O)[O-])cc1 [Compound 18, 5-Fluoro-2-[3-(4-nitrobenzoyloxy)-4-methoxyphenyl]benzothiazole] |  |  |  |  | 
156 |  |  |  |  | COc1cc(-c2nc3cc(F)ccc3s2)ccc1O [Compound 6, 5-Fluoro-2-(4-hydroxy-3-methoxyphenyl)benzothiazole] |  |  | dyschemotherapeutic effect |  | 
150 |  |  |  |  | CCC(=O)Oc1cc(-c2nc3cc(F)ccc3s2)ccc1OC [Compound 13, 5-Fluoro-2-(3-propionyloxy-4-methoxyphenyl)benzothiazole] |  |  |  |  | 
157 to 159 | 870 | 13700 |  |  | COc1ccc(-c2nc3cc(F)ccc3s2)cc1F [Compound 25, 5-Fluoro-2-(3-fluoro-4-methoxyphenyl)benzothiazole] | 640 | 20600 |  |  | 
